Data published in PMC3425385 (2011).

Molecular target: T1, KIAA1363 (AADACL1, NCEH1) (Homo sapiens, UniProt Q6PIU2)
T1 sequence (Q6PIU2 1-408): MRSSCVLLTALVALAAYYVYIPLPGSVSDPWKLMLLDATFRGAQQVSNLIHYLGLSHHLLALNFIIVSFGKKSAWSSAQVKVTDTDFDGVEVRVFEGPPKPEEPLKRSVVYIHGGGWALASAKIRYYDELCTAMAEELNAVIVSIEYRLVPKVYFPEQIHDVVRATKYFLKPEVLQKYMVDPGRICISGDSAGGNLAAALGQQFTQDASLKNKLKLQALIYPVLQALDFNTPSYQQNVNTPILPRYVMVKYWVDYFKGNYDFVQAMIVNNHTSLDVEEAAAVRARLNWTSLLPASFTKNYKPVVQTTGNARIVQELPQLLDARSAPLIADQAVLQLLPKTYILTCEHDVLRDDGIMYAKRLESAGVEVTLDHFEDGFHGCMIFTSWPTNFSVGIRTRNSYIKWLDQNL
Assay: competitive gel-based ABPP with FP-Rh in PC3 cells in situ
Type: cell-based

IC50: 0.34 ± 0.15 µM
Substance: JW576
